Measurements taken from patent US20250332149A1, “PIPERIDINE COMPOUNDS AND PHARMACEUTICAL COMPOSITIONS” (Lumos Pharma, Inc., priority 2024, published 2025).
Read-outs that look alike come from different tables or passages of the source.

Test: Phase 1 study Part 2: food effect on plasma PK of LUM-201 capsule
Assay type: in vivo, human
Details: for % AUCex, Arithmetic Mean / % AUCex, Geometric Mean / Clast, Arithmetic Mean / Clast, Geometric Mean / tlag, Median / tlast, Median / λz, Arithmetic Mean / λz, Geometric Mean / AUC(0-inf) / AUC(0-t) / Cmax / half-life / Tmax: oral; for AUC(0-inf) / AUC(0-t) / Cmax / half-life / Tmax: human, plasma, po, 85.3 mg; for Tmax: read-out: tmax, Median
Description: This was a single center, open-label, randomized, Phase 1 study in healthy adult subjects. This study consisted of 2 parts: Part 1 was a 4-sequence, 4-treatment, 4 Treatment Periods, crossover study to determine the relative bioavailability of current tablets to new capsule formulations of LUM-201; Part 2 was a 2-sequence, 2-treatment, 2 Treatment Periods, crossover study to evaluate the food effect on the bioavailability of the new capsule formulation of LUM-201. An individual subject was allowed to participate in only 1 part (Part 1 or Part 2) of the study. Forty subjects were planned and enrolled in this study. • Part 1: A total of 28 subjects were planned and enrolled in Part 1. Part 1 consisted of 4 sequences, each having 4 Treatment Periods enrolling 7 subjects (1:1:1:1 ratio). During Treatment Periods 1 through 4, each subject received 4 single oral doses of LUM-201 drug product in a randomized, crossover order. • Part 2: A total of 12 subjects were planned and enrolled in Part 2. Part 2 consisted of 2 sequences, each having 2 Treatment Periods enrolling 6 subjects (1:1 ratio). Each subject received a single oral dose of LUM-201 at each Treatment Period. During Treatment Periods 1 and 2, each subject received 2 single oral doses of LUM-201 in a randomized, crossover order. • On Day 1 of Treatment Period 1, subjects were administered the assigned treatment (A or B) as randomized, followed by a washout of at least 3 days between Treatment Periods 1 and 2. Subjects stayed in-house (not discharged) between the Treatment Periods. • Treatment A was dosed at 85.3 mg capsule formulation of LUM-201 (intact capsule consumed unopened) consumed while subject was in a fasted state with 240 mL of water. • Treatment B was dosed at 85.3 mg capsule formulation of LUM-201 (intact capsule consumed unopened) consumed 30 minutes after start of a high-fat meal with 240 mL of water. • Subjects were discharged from the study center on the morning of Day 3 of Treatment Period 2 after the scheduled study assessments had been completed.
Fasted Treatment Period (Treatments A): Each subject received a single dose of LUM-201 in the morning of Day 1 after an overnight fast of at least 10 hours.
Treatment A was dosed at 85.3 mg capsule formulation of LUM-201 (intact capsule consumed unopened) consumed while subject was in a fasted state with 240 mL of water.
Fed Treatment Period (Treatment B): On the morning of Day 1, following an overnight fast of at least 10 hours, a high-fat breakfast (approximately 800 to 1000 calories) was served approximately 30 minutes before the planned dosing time. Subjects were required to eat the entire breakfast in less than 30 minutes.
Treatment B was dosed at 85.3 mg capsule formulation of LUM-201 (intact capsule consumed unopened) consumed 30 minutes after the start of the high-fat breakfast with 240 mL of water according to the FDA Guidance 20225. […]

[1] = 85.3 mg capsule with food vs fasted, statistically significant
[2] = Part 2, Treatment A: 85.3 mg capsule, fasted
[3] = Part 2, Treatment B: 85.3 mg capsule, 30 minutes after start of high-fat meal

CC(C)(N)C(=O)N[C@H](COCc1ccccc1)C(=O)N1CCC2(CC1)CN(S(C)(=O)=O)c1ccccc12 [LUM-201, N-[1(R)-[(1,2-dihydro-1-methanesulfonylspiro[3H-indole-3,4′-piperdin]-yl)carbonyl]-2-(phenylmethyloxy)ethyl]-2-amino-2-methylpropanamide methanesulfonate]
food effect on tmax (85.3 mg capsule with food vs fasted): no significant effect | increase of AUC0-inf with food [1]: 17.8% | increase of AUC0-last with food [1]: 17.8% | increase of Cmax with food [1]: 64.4% | % AUCex, Arithmetic Mean [2]: 1.868% | % AUCex, Geometric Mean [2]: 1.689% | Clast, Arithmetic Mean [2]: 0.7762 ng/mL | Clast, Geometric Mean [2]: 0.7216 ng/mL | tlag, Median [2]: 0.2489 h | tlast, Median [2]: 48.03 h | λz, Arithmetic Mean [2]: 0.0874 h⁻¹ | λz, Geometric Mean [2]: 0.0848 h⁻¹ | % AUCex, Arithmetic Mean [3]: 2.081% | % AUCex, Geometric Mean [3]: 1.845% | Clast, Arithmetic Mean [3]: 0.9223 ng/mL | Clast, Geometric Mean [3]: 0.8783 ng/mL | tlag, Median [3]: 0.2906 h | tlast, Median [3]: 48.00 h | λz, Arithmetic Mean [3]: 0.0829 h⁻¹ | λz, Geometric Mean [3]: 0.0803 h⁻¹ | AUC(0-inf) (Part 2, Treatment A: 85.3 mg capsule, fasted, read-out: AUC0-inf, Arithmetic Mean): 538 ng·h/mL | AUC(0-inf) (Part 2, Treatment A: 85.3 mg capsule, fasted, read-out: AUC0-inf, Geometric Mean): 504 ng·h/mL | AUC(0-t) (Part 2, Treatment A: 85.3 mg capsule, fasted, read-out: AUC0-last, Arithmetic Mean): 528 ng·h/mL | AUC(0-t) (Part 2, Treatment A: 85.3 mg capsule, fasted, read-out: AUC0-last, Geometric Mean): 494 ng·h/mL | Cmax (Part 2, Treatment A: 85.3 mg capsule, fasted, read-out: Cmax, Arithmetic Mean): 87.3 ng/mL | Cmax (Part 2, Treatment A: 85.3 mg capsule, fasted, read-out: Cmax, Geometric Mean): 80.5 ng/mL | half-life (Part 2, Treatment A: 85.3 mg capsule, fasted, read-out: t1/2, Arithmetic Mean (converted)): 8.39 h | half-life (Part 2, Treatment A: 85.3 mg capsule, fasted, read-out: t1/2, Geometric Mean (converted)): 8.17 h | Tmax [2]: 1.53 h | AUC(0-inf) (Part 2, Treatment B: 85.3 mg capsule, 30 minutes after start of high-fat meal, read-out: AUC0-inf, Arithmetic Mean): 626 ng·h/mL | AUC(0-inf) (Part 2, Treatment B: 85.3 mg capsule, 30 minutes after start of high-fat meal, read-out: AUC0-inf, Geometric Mean): 591 ng·h/mL | AUC(0-t) (Part 2, Treatment B: 85.3 mg capsule, 30 minutes after start of high-fat meal, read-out: AUC0-last, Arithmetic Mean): 614 ng·h/mL | AUC(0-t) (Part 2, Treatment B: 85.3 mg capsule, 30 minutes after start of high-fat meal, read-out: AUC0-last, Geometric Mean): 579 ng·h/mL | Cmax (Part 2, Treatment B: 85.3 mg capsule, 30 minutes after start of high-fat meal, read-out: Cmax, Arithmetic Mean): 151 ng/mL | Cmax (Part 2, Treatment B: 85.3 mg capsule, 30 minutes after start of high-fat meal, read-out: Cmax, Geometric Mean): 134 ng/mL | half-life (Part 2, Treatment B: 85.3 mg capsule, 30 minutes after start of high-fat meal, read-out: t1/2, Arithmetic Mean (converted)): 8.87 h | half-life (Part 2, Treatment B: 85.3 mg capsule, 30 minutes after start of high-fat meal, read-out: t1/2, Geometric Mean (converted)): 8.61 h | Tmax [3]: 1.5 h
